Measurements from article PMC9395670 (Frontiers in Chemistry, 2022).
Entries after “also recorded” stand apart in the source; their conditions may differ. Read-outs that look alike come from different tables or passages of the source.

Legend:
[1] = target: T1, Aβ1–42 and human recombinant AChE (Homo sapiens, UniProt P22303); experiment: Inhibition of AChE-induced Aβ1–42 aggregation (thioflavin T assay); type: biochemical; conditions: read-out: Inhibition of Aβ aggregation (%) AChE-induced
T1 construct: Aβ1–42 (Sigma A9810); purchased Sigma C1682 (AChE); A9810 (Aβ1–42)
Protocol: (§1) For this purpose, we used the thioflavin T (ThT) assay.
(§2) Aβ1–42 (Sigma A9810) 50 μM was dissolved in ammonium hydroxide (1% v/v) for pre-fibrillation and incubated for 72 h at 37°C. […] Next, 50 μl of thioflavin T (ThT, 200 μM) containing 50 mM glycine-NaOH buffer (pH 8.5) was added. […] The aggregation inhibition of the tested compounds was calculated on AChE or self-induced Aβ-aggregation according to the equation (1−IFi/IFc) × 100, where IFi and IFc are the fluorescence intensities in the presence of inhibitors and in the absence of inhibitors, respectively.

[2] = Cell viability assay (MTT) in PC12 cells; type: cell-based; conditions: rat
Protocol: Safety is an important factor for CNS agents. In order to evaluate the cytotoxic effect of selected compounds 5a, 5f, 5h, 5i, and 5l, the in-vitro cell viability assay was investigated on the PC12 cell line using the MTT (3-(4,5-dimethylthiazol-2-yl)-2,5-diphenyltetrazolium bromide) assay. The PC12 cells were incubated with varying concentrations (0.01–100 μM) of the test compounds for 24 h. […] The results are expressed as the percentage of viable cells.
In order to evaluate cell viability of 5a, 5f, 5h, 5i, and 5l, the 3-(4,5-dimethylthiazol-2-yl)-2,5-diphenyl tetrazolium bromide (MTT) assay was performed using PC12 cell line. Cells were seeded in 96-well plates at a density of 5,000 cells/well for 24 h, and then cells were treated with tested compounds and glutamate (5 mM) and incubated at 37°C for 24 h. After that, the medium was removed and 20 μl of the MTT reagent (5 mg/ml) was added and incubated at 37 °C for 4 h. Then, the medium was replaced with 150 μl DMSO to solve formazan crystals. The absorbance was recorded by microplate reader apparatus (Biotek, Winooski, VT, United States) at 570 nm. The assay was performed in three independent experiments and triplicate.

Aβ1–42 = target: T2, Aβ1–42 (Homo sapiens, UniProt P05067); experiment: Inhibition of self-induced Aβ1–42 aggregation (thioflavin T assay); type: biochemical; conditions: for inhibition at 10 µM: read-out: Inhibition of Aβ aggregation (%) Self-induced; for Effectiveness relative to donepezil in inhibition of self-induced Aβ aggregation: 10 μM
T2 construct: Aβ1–42 (Sigma A9810); purchased Sigma A9810
Protocol: as §1, §2

[3] = target: T3, horse serum BuChE (eqBuChE) (Equus caballus, UniProt P81908); experiment: biochemical; conditions: Ellman's method, 25°C, mean ± SEM of three experiments
T3 construct: horse serum BuChE (eqBuChE, Sigma-Aldrich); purchased Sigma-Aldrich; host or cells: horse serum
Protocol: (§3) This method is based on the reaction of acetylthiocholine with 5,5′´-dithio-bis-(2-nitrobenzoic) acid (DTNB) to yield the colored product.
(§4) AChE from E. electricus, and horse serum BuChE (eqBuChE, Sigma-Aldrich) 5,5-Dithiobis-(2-nitrobenzoic acid) (DTNB), and acetylthiocholine iodide (ATC) were purchased from Sigma Aldrich. […] In this procedure, five different concentrations of each compound were used at 25°C. […] For the in-vitro BuChE assay similar method has been used.

AChE from E. electricus = target: T4, AChE from E. electricus (Electrophorus electricus, UniProt O42275); experiment: biochemical
T4 construct: purchased Sigma Aldrich
Protocol: as §3, §4

AChE = AChE (Electrophorus electricus, UniProt O42275); experiment: Kinetics study of AChE inhibition (Lineweaver-Burk plots); type: biochemical; conditions: inhibitor at 0.32, 0.64, 1.27 μM, substrate ATCh
Protocol: The inhibition model of acetylcholinesterase can be categorized into irreversible-type inhibition and reversible-type inhibition. […]. The type of inhibition can be concluded with a graphical analysis of the Lineweaver-Burk reciprocal plots ([Baharloo et al., 2015]).
[…]. The experiment was assayed in triplicate.

[4] = compound at 10 μM, ThT assay, mean ± SEM of three experiments
[5] = Ellman's method, 25°C, mean ± SEM of three experiments, read-out: IC50 (μM) AChE

T4 sequence (O42275 24-633): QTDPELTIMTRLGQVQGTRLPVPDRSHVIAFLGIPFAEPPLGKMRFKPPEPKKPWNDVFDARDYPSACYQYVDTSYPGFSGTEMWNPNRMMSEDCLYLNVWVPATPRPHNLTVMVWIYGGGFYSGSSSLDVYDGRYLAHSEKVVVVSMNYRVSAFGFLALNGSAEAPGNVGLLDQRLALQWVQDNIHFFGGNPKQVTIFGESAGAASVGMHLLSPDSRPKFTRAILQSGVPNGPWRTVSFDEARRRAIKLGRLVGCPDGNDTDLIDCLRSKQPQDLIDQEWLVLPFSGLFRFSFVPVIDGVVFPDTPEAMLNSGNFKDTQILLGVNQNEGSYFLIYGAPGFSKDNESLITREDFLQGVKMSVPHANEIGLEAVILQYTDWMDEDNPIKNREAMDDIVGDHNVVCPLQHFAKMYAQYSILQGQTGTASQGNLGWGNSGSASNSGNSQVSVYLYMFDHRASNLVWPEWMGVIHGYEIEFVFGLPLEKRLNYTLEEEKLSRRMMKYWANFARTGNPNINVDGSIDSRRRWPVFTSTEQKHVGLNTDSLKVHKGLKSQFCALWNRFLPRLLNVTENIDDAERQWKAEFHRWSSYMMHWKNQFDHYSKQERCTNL
T2 sequence (P05067 672-713 limits assumed): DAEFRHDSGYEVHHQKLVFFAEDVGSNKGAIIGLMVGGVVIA
T1 sequence (P22303 32-614): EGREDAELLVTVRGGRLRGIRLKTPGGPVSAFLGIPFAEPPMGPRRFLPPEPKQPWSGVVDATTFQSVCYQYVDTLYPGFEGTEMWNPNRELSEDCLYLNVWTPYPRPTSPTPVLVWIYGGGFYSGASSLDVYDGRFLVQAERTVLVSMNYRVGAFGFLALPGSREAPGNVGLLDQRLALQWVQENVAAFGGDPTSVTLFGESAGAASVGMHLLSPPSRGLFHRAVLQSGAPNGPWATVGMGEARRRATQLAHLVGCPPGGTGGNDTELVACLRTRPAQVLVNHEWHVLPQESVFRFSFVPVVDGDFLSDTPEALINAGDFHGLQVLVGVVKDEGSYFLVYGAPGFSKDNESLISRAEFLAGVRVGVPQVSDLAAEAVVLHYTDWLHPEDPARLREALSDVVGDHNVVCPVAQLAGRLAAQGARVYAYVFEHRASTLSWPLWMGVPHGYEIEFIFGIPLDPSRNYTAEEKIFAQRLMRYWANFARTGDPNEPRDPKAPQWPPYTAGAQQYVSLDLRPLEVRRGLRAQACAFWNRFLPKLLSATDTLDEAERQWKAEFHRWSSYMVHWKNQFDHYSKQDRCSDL
T3 sequence (P81908 whole entry): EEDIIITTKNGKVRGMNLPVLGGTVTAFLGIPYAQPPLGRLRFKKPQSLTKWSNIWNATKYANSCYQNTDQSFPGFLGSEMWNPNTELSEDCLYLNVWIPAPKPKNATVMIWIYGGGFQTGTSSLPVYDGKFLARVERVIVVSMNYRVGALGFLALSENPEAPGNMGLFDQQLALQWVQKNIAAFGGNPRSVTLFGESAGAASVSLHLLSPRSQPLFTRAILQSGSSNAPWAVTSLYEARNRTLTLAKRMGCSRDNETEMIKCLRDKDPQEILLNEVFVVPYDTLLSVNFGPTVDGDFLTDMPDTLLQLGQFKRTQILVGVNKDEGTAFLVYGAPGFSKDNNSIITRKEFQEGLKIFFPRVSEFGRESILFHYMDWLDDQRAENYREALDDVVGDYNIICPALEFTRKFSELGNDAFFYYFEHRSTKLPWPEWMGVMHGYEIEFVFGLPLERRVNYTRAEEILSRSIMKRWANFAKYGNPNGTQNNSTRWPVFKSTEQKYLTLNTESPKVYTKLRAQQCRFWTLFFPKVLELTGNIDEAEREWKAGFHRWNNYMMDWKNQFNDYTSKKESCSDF
Chain of AChE (O42275 24-633): as the sequence (O42275 24-633) above

SMILES | IC50 [3] [µM] | IC50 (AChE from E. electricus; [5]) [µM] | also measured
Nc1c(-c2cc[n+](Cc3ccccc3)cc2)oc2ccccc12 [5a, 4-(3-Aminobenzofuran-2-yl)-1-benzylpyridin-1-ium chloride] | 0.82 ± 0.07 | – | inhibition at 100 µM [1]: 22.4 ± 1.6%; viability at 24 h [2]: 85.9 ± 1.5%; inhibition at 10 µM (Aβ1–42; [4]): 17.6 ± 3.8%; IC50 (AChE from E. electricus): 0.81 ± 0.02 µM
Cc1ccccc1C[n+]1ccc(-c2oc3ccccc3c2N)cc1 [5b, 4-(3-Aminobenzofuran-2-yl)-1-(2-methylbenzyl) pyridin-1-ium chloride] | 17.4 ± 2.45 | 3.29 ± 0.01 | –
Cc1cccc(C[n+]2ccc(-c3oc4ccccc4c3N)cc2)c1 [5c, 4-(3-Aminobenzofuran-2-yl)-1-(3-methylbenzyl) pyridin-1-ium chloride] | 12.9 ± 3.56 | 3.32 ± 0.04 | –
Cc1ccc(C[n+]2ccc(-c3oc4ccccc4c3N)cc2)cc1 [5d, 4-(3-Aminobenzofuran-2-yl)-1-(4-methylbenzyl) pyridin-1-ium chloride] | 25.3 ± 1.91 | 29.3 ± 0.82 | –
COc1cccc(C[n+]2ccc(-c3oc4ccccc4c3N)cc2)c1 [5e, 4-(3-Aminobenzofuran-2-yl)-1-(3-methoxybenzyl) pyridin-1-ium chloride] | > 100 | 81.1 ± 1.61 | –
Nc1c(-c2cc[n+](Cc3ccccc3F)cc2)oc2ccccc12.[Cl-] [5f, 4-(3-Aminobenzofuran-2-yl)-1-(2-fluorobenzyl) pyridin-1-ium chloride] | 0.55 ± 0.07 | – | inhibition at 100 µM [1]: 30.1 ± 1.9%; viability at 24 h [2]: 86.4 ± 2.6%; Effectiveness relative to donepezil in inhibition of self-induced Aβ aggregation (Aβ1–42; ThT assay): about 2 fold; inhibition at 10 µM (Aβ1–42; [4]): 29.8 ± 1.8%; Type of inhibition on AChE (AChE): mixed-type inhibition; also recorded: mixed-type inhibitory pattern; IC50 (AChE from E. electricus): 0.64 ± 0.04 µM
Nc1c(-c2cc[n+](Cc3cccc(F)c3)cc2)oc2ccccc12 [5g, 4-(3-Aminobenzofuran-2-yl)-1-(3-fluorobenzyl) pyridin-1-ium chloride] | 2.89 ± 0.42 | 1.68 ± 0.02 | –
Nc1c(-c2cc[n+](Cc3ccc(F)cc3)cc2)oc2ccccc12.[Cl-] [5h, 4-(3-Aminobenzofuran-2-yl)-1-(4-fluorobenzyl) pyridin-1-ium chloride] | 5.05 ± 0.73 | – | inhibition at 100 µM [1]: 35.6 ± 1.5%; viability at 24 h [2]: 88.2 ± 2.4%; Effectiveness relative to donepezil in inhibition of self-induced Aβ aggregation (Aβ1–42; ThT assay): about 2 fold; inhibition at 10 µM (Aβ1–42; [4]): 38.8 ± 2.8%; IC50 (AChE from E. electricus): 0.88 ± 0.04 µM
Nc1c(-c2cc[n+](Cc3ccccc3Cl)cc2)oc2ccccc12 [5i, 4-(3-Aminobenzofuran-2-yl)-1-(2-chlorobenzyl) pyridin-1-ium chloride] | 0.99 ± 0.05 | – | inhibition at 100 µM [1]: 26.5 ± 3.8%; viability at 24 h [2]: 90.2 ± 4.1%; inhibition at 10 µM (Aβ1–42; [4]): 24.8 ± 1.5%; IC50 (AChE from E. electricus): 0.7 ± 0.01 µM
Nc1c(-c2cc[n+](Cc3cccc(Cl)c3)cc2)oc2ccccc12 [5j, 4-(3-Aminobenzofuran-2-yl)-1-(3-chlorobenzyl) pyridin-1-ium chloride] | 18.8 ± 1.11 | 2.99 ± 0.03 | –
Nc1c(-c2cc[n+](Cc3ccc(Cl)cc3)cc2)oc2ccccc12 [5k, 4-(3-Aminobenzofuran-2-yl)-1-(4-chlorobenzyl) pyridin-1-ium chloride] | 31.2 ± 2.56 | 16.6 ± 0.52 | –
Nc1c(-c2cc[n+](Cc3ccccc3Br)cc2)oc2ccccc12 [5l, 4-(3-Aminobenzofuran-2-yl)-1-(2-bromobenzyl) pyridin-1-ium chloride] | 10.5 ± 0.19 | – | inhibition at 100 µM [1]: 22.4 ± 2.3%; viability at 24 h [2]: 87.1 ± 2.9%; inhibition at 10 µM (Aβ1–42; [4]): 25.7 ± 2.7%; IC50 (AChE from E. electricus): 1.34 ± 0.01 µM
Nc1c(-c2cc[n+](Cc3cccc(Br)c3)cc2)oc2ccccc12 [5m, 4-(3-Aminobenzofuran-2-yl)-1-(3-bromobenzyl) pyridin-1-ium chloride] | 13.9 ± 1.2 | 4.47 ± 0.02 | –
Nc1c(-c2cc[n+](Cc3ccc(Br)cc3)cc2)oc2ccccc12 [5n, 4-(3-Aminobenzofuran-2-yl)-1-(4-bromobenzyl) pyridin-1-ium chloride] | 22.6 ± 3.33 | 15.8 ± 0.91 | –
Nc1c(-c2cc[n+](Cc3ccccc3[N+](=O)[O-])cc2)oc2ccccc12 [5o, 4-(3-Aminobenzofuran-2-yl)-1-(2-nitrobenzyl) pyridin-1-ium chloride] | 28.63 ± 0.13 | 7.84 ± 0.05 | –
Nc1c(-c2cc[n+](Cc3ccc([N+](=O)[O-])cc3)cc2)oc2ccccc12 [5p, 4-(3-Aminobenzofuran-2-yl)-1-(4-nitrobenzyl) pyridin-1-ium chloride] | 28.3 ± 0.48 | 20.6 ± 0.8 | –
COc1cc2c(cc1OC)C(=O)C(CC1CCN(Cc3ccccc3)CC1)C2 (stereo not drawn) [Donepezil, reference compound] | – | – | inhibition at 10 µM (Aβ1–42): 14.9 ± 2.5%
